Molecules are shown by their SMILES. Entries after “also recorded” stand apart in the source; their conditions may differ.

Holding throughout (format): in vivo, rat
In one test the test system is α-SMA. Kind of test: Western immunoblotting, α-SMA. Particulars: aged rats; oral 8-AG 5 mg/kg/day, 6 weeks. The procedure: (§1) Western immunoblotting: Following the testing paradigms, rats were deeply anesthetized, bladders as well as the proximal urethra were removed, and one half of each preparation was homogenized using Lysing Matrix D in a FastPrep 24 instrument (MP Biomedicals, Solon, Ohio) in HBSS [5 mM KCl, 0.3 mM KH2PO4, 138 mM NaCl, 4 mM NaHO3, 0.3 mM Na2HCO3, 0.3 mM Na2HPO4, 5.6 mM glucose, and 10 mM Hepes, pH 7.4 containing a complete protease inhibitor cocktail (1 tablet/10 ml, ROCHE®, Indianapolis, Ind.) and a phosphatase inhibitor cocktail (SIGMA®, 1:100)]. After centrifugation (13000 rpm; 15 min at 4° C.), the membrane protein fraction was prepared by suspending the membrane pellets in lysis buffer containing 0.3 M NaCl, 50 mM Tris-HCl (pH 7.6), and 0.5% Triton X-100 and the same concentration of protease inhibitors as above. The suspensions were incubated on ice and centrifuged (13000 rpm; 15 min at 4° C.). The protein concentrations of the combined supernatants were determined using the PIERCE® BCA protein assay (THERMO SCIENTIFIC®, Rockford, Ill.). […] As a loading control, total protein per sample was determined using Bio-Rad Stain Free SDS-PAGE gel technology. UV-activated protein fluorescence was imaged on a CHEMIDOC® MP (BIO-RAD®). […] The volume (intensity) of each protein species was determined and normalized to total protein using Image Lab software (BIO-RAD®). […]
A general note: In western blotting, separated proteins are transferred to a membrane and probed.

For another test, the system named is CYP-treated rats. Kind of test: Laser Doppler bladder blood flow in CYP cystitis model. Particulars: CYP (75 mg/kg i.p.) female Sprague Dawley rats; oral 8-AG 5 mg/kg/day starting one week prior to CYP. How it is done: Animals: Female Sprague Dawley rats were employed in this example (Charles River; Wilmington, Mass.). Three groups of animals were included. Group 1 received an i.p. injection of saline and was used as a control; groups 2 and 3 received an i.p. injection of cyclophosphamide (CYP, SIGMA-ALDRICH®, St Louis, Mo., day 0, 3, 6, sacrifice day 8, 75 mg/kg, i.p.) with group 3 treated with oral 8-AG (5 mg/kg/day; starting one week prior to CYP). CYP induced bladder inflammation and is a well-established pre-clinical model for BPS/IC.
Blood Flow Changes: Real-time bladder blood perfusion (1 mm^3 tissue) was accomplished using a BLF22D laser Doppler flowmeter (Transonic Systems, Inc) with a surface probe (TypeS-APLPHS) applied to the serosal surface of the bladder (apex and neck) wall using Doppler light shift from moving RBCs to analyze flow by the Bonner algorithm. This method gives robust, non-invasive microvascular flow signals in the bladder wall of anesthetized rats.

For the next test, the system named is cathepsin B. Kind of test: Western immunoblotting, cathepsin B. The following applies: aged rats; oral 8-AG 5 mg/kg/day, 6 weeks. How it is done: as §1

For `Nc1nc2[nH]c(N)nc2c(=O)[nH]1` [8-AG, 8-Aminoguanine], in the test with α-SMA, the “α-SMA expression in detrusor” value is “increasing expression toward younger state; also recorded: normalized; also recorded: restored these biomarkers to that of a younger state” and the “α-SMA expression in urethra” value is recorded as “increasing expression toward younger state; also recorded: normalized to a younger state”. Besides, in the test on CYP-treated rats, the “bladder blood flow (CYP-induced hyperemia)” value was “abolished; also recorded: reversed to a control state”. In addition, the “cathepsin B expression in urethra” value with cathepsin B is recorded as “trend toward reversal”.

(Values after patent US20220054494A1, “METHODS FOR TREATING BLADDER AND URETHRA DYSFUNCTION AND DISEASE” (University of Pittsburgh - Of the Commonwealth System of …, priority 2019, published 2022).)
